According to PMC5218480 (PLoS ONE, 2017):

Test system: MV-4-11 cells
Experiment: Gene expression microarray analysis (Affymetrix PrimeView) and GSEA
Type: cell-based, human
Parameters: RFU PODN (11730768_x_at) / Fold change /veh PODN (11730768_x_at) / RFU LINC00158 (11744669_a_at) / Fold change /veh LINC00158 (11744669_a_at) / RFU DUSP10 (11751237_a_at) / Fold change /veh DUSP10 (11751237_a_at) / RFU ID3 (11757404_x_at) / Fold change /veh ID3 (11757404_x_at) / RFU PLEKHG5 (11737974_s_at) / Fold change /veh PLEKHG5 (11737974_s_at) / RFU LRRC4B (11730491_at) / Fold change /veh LRRC4B (11730491_at) / RFU GIMAP4 (11747438_a_at) / Fold change /veh GIMAP4 (11747438_a_at) / RFU KRT8 (11758183_x_at) / Fold change /veh KRT8 (11758183_x_at) / RFU CNN1 (11734310_a_at) / Fold change /veh CNN1 (11734310_a_at) / RFU VPS37D (11726825_at) / Fold change /veh VPS37D (11726825_at) / RFU C10orf10 (11716522_x_at) / Fold change /veh C10orf10 (11716522_x_at) / RFU KIR2DL2 /// KIR2DL4 /// KIR2DL5A /// KIR2DL5B /// KIR2DS1 /// KIR2DS2 /// KIR2DS3 /// KIR2DS4 /// KIR3DL3 /// KIR3DL3 /// KIR3DS1 (11738374_at) / Fold change /veh KIR2DL2 /// KIR2DL4 /// KIR2DL5A /// KIR2DL5B /// KIR2DS1 /// KIR2DS2 /// KIR2DS3 /// KIR2DS4 /// KIR3DL3 /// KIR3DL3 /// KIR3DS1 (11738374_at) / RFU C1QL1 (11718748_at) / Fold change /veh C1QL1 (11718748_at) / RFU TMPRSS4 (11747572_a_at) / Fold change /veh TMPRSS4 (11747572_a_at) / RFU HAMP (11756126_x_at) / Fold change /veh HAMP (11756126_x_at) / RFU RNFT2 (11725882_a_at) / Fold change /veh RNFT2 (11725882_a_at) / RFU NR4A2 (11747474_a_at) / Fold change /veh NR4A2 (11747474_a_at) / RFU ABCC12 (11746883_a_at) / Fold change /veh ABCC12 (11746883_a_at) / RFU TMEM136 (11760407_x_at) / Fold change /veh TMEM136 (11760407_x_at) / RFU CLDN22 /// WWC2 (11732394_at) / Fold change /veh CLDN22 /// WWC2 (11732394_at) / RFU HLA-DPB1 (11760878_x_at) / Fold change /veh HLA-DPB1 (11760878_x_at) / RFU SPINT1 (11716480_a_at) / Fold change /veh SPINT1 (11716480_a_at) / RFU GAP43 (11754022_s_at) / Fold change /veh GAP43 (11754022_s_at) / RFU A4GNT (11735810_at) / Fold change /veh A4GNT (11735810_at) / RFU PRB3 (11715151_x_at) / Fold change /veh PRB3 (11715151_x_at) / RFU TUBB4B (11761932_at) / Fold change /veh TUBB4B (11761932_at) / RFU CAPN14 (11732068_a_at) / Fold change /veh CAPN14 (11732068_a_at) / RFU TMCC2 (11721928_a_at) / Fold change /veh TMCC2 (11721928_a_at) / RFU IRGQ (11745062_a_at) / Fold change /veh IRGQ (11745062_a_at) / RFU FAM174B (11720279_a_at) / Fold change /veh FAM174B (11720279_a_at) / RFU TMPRSS4 (11748680_a_at) / Fold change /veh TMPRSS4 (11748680_a_at) / RFU FAM212B (11763350_a_at) / Fold change /veh FAM212B (11763350_a_at) / RFU PLEKHG5 (11743358_a_at) / Fold change /veh PLEKHG5 (11743358_a_at) / RFU ZSCAN30 (11745921_a_at) / Fold change /veh ZSCAN30 (11745921_a_at) / RFU CMKLR1 (11741424_a_at) / Fold change /veh CMKLR1 (11741424_a_at) / RFU LOC101060620 /// MAPK8IP1 (11723275_at) / Fold change /veh LOC101060620 /// MAPK8IP1 (11723275_at) / RFU SPTSSB (11747773_x_at) / Fold change /veh SPTSSB (11747773_x_at) / RFU PRSS12 (11739890_at) / Fold change /veh PRSS12 (11739890_at) / RFU BIN1 (11741810_x_at) / Fold change /veh BIN1 (11741810_x_at) / RFU WNT11 (11732464_a_at) / Fold change /veh WNT11 (11732464_a_at) / RFU C10orf10 (11716521_a_at) / Fold change /veh C10orf10 (11716521_a_at) / RFU C5orf56 (11738089_at) / Fold change /veh C5orf56 (11738089_at) / RFU CYB561 (11721691_x_at) / Fold change /veh CYB561 (11721691_x_at) / RFU ANKRD19P (11752326_a_at) / Fold change /veh ANKRD19P (11752326_a_at) / RFU OR2T12 /// OR2T33 /// OR2T8 (11738714_s_at) / Fold change /veh OR2T12 /// OR2T33 /// OR2T8 (11738714_s_at) / RFU VCAN (11748164_a_at) / Fold change /veh VCAN (11748164_a_at) / RFU JSRP1 (11732532_at) / Fold change /veh JSRP1 (11732532_at) / RFU KRTAP10-11 (11738290_x_at) / Fold change /veh KRTAP10-11 (11738290_x_at) / RFU MYO3A (11730013_a_at) / Fold change /veh MYO3A (11730013_a_at) / RFU EBF3 (11725865_a_at) / Fold change /veh EBF3 (11725865_a_at) / RFU CAMK2N1 (11719241_x_at) / Fold change /veh CAMK2N1 (11719241_x_at) / RFU C5orf56 (11738088_a_at) / Fold change /veh C5orf56 (11738088_a_at) / RFU OLFML3 (11715873_a_at) / Fold change /veh OLFML3 (11715873_a_at) / RFU LOC100653217 /// NTM (11731650_a_at) / Fold change /veh LOC100653217 /// NTM (11731650_a_at) / RFU MAPK11 (11762145_a_at) / Fold change /veh MAPK11 (11762145_a_at) / RFU FIZ1 (11724087_x_at) / Fold change /veh FIZ1 (11724087_x_at) / RFU OASL (11726364_x_at) / Fold change /veh OASL (11726364_x_at) / RFU SOX15 (11748057_x_at) / Fold change /veh SOX15 (11748057_x_at) / RFU CD79A (11719716_a_at) / Fold change /veh CD79A (11719716_a_at) / RFU HIST1H1D (11736915_at) / Fold change /veh HIST1H1D (11736915_at) / RFU CASKIN2 (11723855_a_at) / Fold change /veh CASKIN2 (11723855_a_at) / RFU LOC730098 (11760151_x_at) / Fold change /veh LOC730098 (11760151_x_at) / RFU OR4N2 (11742367_at) / Fold change /veh OR4N2 (11742367_at) / RFU PRRT2 (11749266_a_at) / Fold change /veh PRRT2 (11749266_a_at) / RFU SNX32 (11753110_a_at) / Fold change /veh SNX32 (11753110_a_at) / RFU CDHR5 (11726645_a_at) / Fold change /veh CDHR5 (11726645_a_at) / RFU RCAN1 (11760418_a_at) / Fold change /veh RCAN1 (11760418_a_at) / RFU FAM167A (11723789_a_at) / Fold change /veh FAM167A (11723789_a_at) / RFU FAM26E (11764081_at) / Fold change /veh FAM26E (11764081_at) / RFU ISYNA1 (11749810_s_at) / Fold change /veh ISYNA1 (11749810_s_at) / RFU ACY1 (11761880_at) / Fold change /veh ACY1 (11761880_at) / RFU 11764098_at / Fold change /veh 11764098_at / RFU SAMD14 (11745864_x_at) / Fold change /veh SAMD14 (11745864_x_at) / RFU NPB (11741838_a_at) / Fold change /veh NPB (11741838_a_at) / RFU TMPRSS6 (11731388_a_at) / Fold change /veh TMPRSS6 (11731388_a_at) / RFU KRTAP10-2 (11738614_at) / Fold change /veh KRTAP10-2 (11738614_at) / RFU ARHGAP8 /// PRR5-ARHGAP8 (11727945_x_at) / Fold change /veh ARHGAP8 /// PRR5-ARHGAP8 (11727945_x_at) / RFU KRTAP5-7 /// NADSYN1 (11734609_at) / Fold change /veh KRTAP5-7 /// NADSYN1 (11734609_at) / RFU RASL12 (11751679_a_at) / Fold change /veh RASL12 (11751679_a_at) / RFU CDKN2B (11736163_a_at) / Fold change /veh CDKN2B (11736163_a_at) / RFU PRF1 (11729649_at) / Fold change /veh PRF1 (11729649_at) / RFU, ZNF638 /// ZNF638-IT1 / Fold change vs veh, ZNF638 /// ZNF638-IT1 / RFU, PANK3 / Fold change vs veh, PANK3 / RFU, SH3YL1 / Fold change vs veh, SH3YL1 / RFU, ZEB2 / Fold change vs veh, ZEB2 / RFU, NRIP1 / Fold change vs veh, NRIP1 / RFU, PTTG1IP / Fold change vs veh, PTTG1IP / RFU, CAPN2 / Fold change vs veh, CAPN2 / RFU, MED14 / Fold change vs veh, MED14 / RFU, SNORA58 / Fold change vs veh, SNORA58 / RFU, C1orf63 / Fold change vs veh, C1orf63 / RFU, LRRFIP1 / Fold change vs veh, LRRFIP1 / RFU, NDUFAF7 / Fold change vs veh, NDUFAF7 / RFU, SLC12A2 / Fold change vs veh, SLC12A2 / RFU, IBTK / Fold change vs veh, IBTK / RFU, ESF1 / Fold change vs veh, ESF1 / Fold change vs veh, TMEM50B / RFU, TAOK1 / Fold change vs veh, TAOK1 / RFU, ACBD3 / Fold change vs veh, ACBD3 / RFU, TMA16 / Fold change vs veh, TMA16 / RFU, RWDD3 / Fold change vs veh, RWDD3 / RFU, BCAT1 / Fold change vs veh, BCAT1 / RFU, EDEM3 / Fold change vs veh, EDEM3 / RFU, TMEM33 / Fold change vs veh, TMEM33 / RFU, WDR75 / Fold change vs veh, WDR75 / RFU, AHCTF1 / Fold change vs veh, AHCTF1 / RFU, TFRC / Fold change vs veh, TFRC / RFU, ZDHHC17 / Fold change vs veh, ZDHHC17 / RFU, NOM1 / Fold change vs veh, NOM1 / RFU, ARL8B / Fold change vs veh, ARL8B / RFU, ZBTB11 / Fold change vs veh, ZBTB11 / RFU, TAMM41 / Fold change vs veh, TAMM41 / RFU, KIAA1704 /// LOC100996395 / Fold change vs veh, KIAA1704 /// LOC100996395 / RFU, ING1 / Fold change vs veh, ING1 / RFU, TRMT61B / Fold change vs veh, TRMT61B / RFU, FUBP3 / Fold change vs veh, FUBP3 / RFU, TP53 / Fold change vs veh, TP53 / RFU, TNKS2 / Fold change vs veh, TNKS2 / RFU, ZFP14 / Fold change vs veh, ZFP14 / RFU, ACTR2 / Fold change vs veh, ACTR2 / RFU, PPP3R1 / Fold change vs veh, PPP3R1 / RFU, PIK3R1 / Fold change vs veh, PIK3R1 / RFU, HNRNPA1 / Fold change vs veh, HNRNPA1 / RFU, RNF170 / Fold change vs veh, RNF170 / RFU, ZNF28 / Fold change vs veh, ZNF28 / RFU, RNGTT / Fold change vs veh, RNGTT / RFU, OGT / Fold change vs veh, OGT / RFU, BRD1 / Fold change vs veh, BRD1 / RFU, MARS / Fold change vs veh, MARS / RFU, ZNF655 / Fold change vs veh, ZNF655 / RFU, FAHD1 / Fold change vs veh, FAHD1 / RFU, BDP1 / Fold change vs veh, BDP1 / RFU, LRRCC1 / Fold change vs veh, LRRCC1 / RFU, ARID1A / Fold change vs veh, ARID1A / RFU, ZNF146 / Fold change vs veh, ZNF146 / RFU, ZNF330 / Fold change vs veh, ZNF330 / RFU, GPN3 / Fold change vs veh, GPN3 / RFU, C9orf123 / Fold change vs veh, C9orf123 / RFU, N4BP2L2 / Fold change vs veh, N4BP2L2 / RFU, ARFIP1 / Fold change vs veh, ARFIP1 / RFU, FAM179B / Fold change vs veh, FAM179B / RFU, BCL10 / Fold change vs veh, BCL10 / RFU, UHRF1BP1L / Fold change vs veh, UHRF1BP1L / RFU, BET1 / Fold change vs veh, BET1 / RFU, CNOT2 / Fold change vs veh, CNOT2 / RFU, ZNF268 / Fold change vs veh, ZNF268 / Fold change vs veh, ZNF507 / RFU, DGCR2 / Fold change vs veh, DGCR2 / RFU, WDSUB1 / Fold change vs veh, WDSUB1 / Fold change vs veh, HSP90B1 /// MIR3652 / RFU, ADSS / Fold change vs veh, ADSS / RFU, GK / Fold change vs veh, GK / RFU, ZNF148 / Fold change vs veh, ZNF148 / RFU, TAF9 / Fold change vs veh, TAF9 / RFU, SLC1A5 / Fold change vs veh, SLC1A5 / RFU, SLMO2 / Fold change vs veh, SLMO2 / RFU, ABCC4 / Fold change vs veh, ABCC4 / RFU, LOC101060439 /// RAP1B / Fold change vs veh, LOC101060439 /// RAP1B / RFU, RFX7 / Fold change vs veh, RFX7 / RFU, GTPBP10 / Fold change vs veh, GTPBP10 / RFU, CNEP1R1 / Fold change vs veh, CNEP1R1 / RFU, BIVM-ERCC5 /// ERCC5 / Fold change vs veh, BIVM-ERCC5 /// ERCC5 / RFU, ILF3 / Fold change vs veh, ILF3 / RFU 11762660_at / Fold change /veh 11762660_at / RFU VCAN (11757783_s_at) / Fold change /veh VCAN (11757783_s_at) / RFU DDX43 (11728927_at) / Fold change /veh DDX43 (11728927_at) / RFU KRT8 (11758188_x_at) / Fold change /veh KRT8 (11758188_x_at) / RFU NKD1 (11759106_at) / Fold change /veh NKD1 (11759106_at) / RFU SRD5A1 (11742802_a_at) / Fold change /veh SRD5A1 (11742802_a_at) / RFU TPSAB1 /// TPSB2 (11721975_s_at) / Fold change /veh TPSAB1 /// TPSB2 (11721975_s_at) / RFU GSTM3 (11746129_a_at) / Fold change /veh GSTM3 (11746129_a_at) / RFU IL23R (11737362_x_at) / Fold change /veh IL23R (11737362_x_at) / RFU TMEM51 (11727254_a_at) / Fold change /veh TMEM51 (11727254_a_at) / RFU PIWIL2 (11732686_x_at) / Fold change /veh PIWIL2 (11732686_x_at) / RFU ORM1 (11744905_x_at) / Fold change /veh ORM1 (11744905_x_at) / RFU CCDC152 (11743942_at) / Fold change /veh CCDC152 (11743942_at) / RFU ECM1 (11717891_a_at) / Fold change /veh ECM1 (11717891_a_at) / RFU IL23R (11748794_a_at) / Fold change /veh IL23R (11748794_a_at) / RFU TNFAIP8L3 (11732012_x_at) / Fold change /veh TNFAIP8L3 (11732012_x_at) / RFU MBOAT4 (11741988_at) / Fold change /veh MBOAT4 (11741988_at) / RFU 11764193_at / Fold change /veh 11764193_at / RFU TMEM53 (11763286_at) / Fold change /veh TMEM53 (11763286_at) / RFU MAGEB2 (11727129_at) / Fold change /veh MAGEB2 (11727129_at) / RFU TMEM200A (11744735_a_at) / Fold change /veh TMEM200A (11744735_a_at) / RFU CCDC152 (11751479_a_at) / Fold change /veh CCDC152 (11751479_a_at) / RFU FAM211A (11726209_a_at) / Fold change /veh FAM211A (11726209_a_at) / RFU RGS16 (11746705_a_at) / Fold change /veh RGS16 (11746705_a_at) / RFU VCAN (11755009_s_at) / Fold change /veh VCAN (11755009_s_at) / RFU RHOB (11743442_s_at) / Fold change /veh RHOB (11743442_s_at) / RFU RGS16 (11720943_a_at) / Fold change /veh RGS16 (11720943_a_at) / RFU RGS16 (11720944_at) / Fold change /veh RGS16 (11720944_at) / RFU, VPS4B / Fold change vs veh, VPS4B / RFU, CREB1 / Fold change vs veh, CREB1 / RFU, DNAJC13 / Fold change vs veh, DNAJC13 / RFU, GNAQ / Fold change vs veh, GNAQ / RFU, CDK5R1 / Fold change vs veh, CDK5R1 / RFU, ZRANB3 / Fold change vs veh, ZRANB3 / RFU, CUL4A / Fold change vs veh, CUL4A / RFU, CCNY / Fold change vs veh, CCNY / RFU, UFL1 / Fold change vs veh, UFL1 / RFU, COG3 / Fold change vs veh, COG3 / RFU, DIAPH2 / Fold change vs veh, DIAPH2 / RFU, SKA2 / Fold change vs veh, SKA2 / RFU, AFF3 / Fold change vs veh, AFF3 / RFU, LMF1 / Fold change vs veh, LMF1 / RFU, IPO11 / Fold change vs veh, IPO11 / RFU, DFFB / Fold change vs veh, DFFB / RFU, FOXP1 / Fold change vs veh, FOXP1 / RFU, CARD8 / Fold change vs veh, CARD8 / RFU, STRN3 / Fold change vs veh, STRN3 / RFU, ADK / Fold change vs veh, ADK / RFU, RASSF2 / Fold change vs veh, RASSF2 / RFU, WIPF1 / Fold change vs veh, WIPF1 / RFU, LARP1B / Fold change vs veh, LARP1B / RFU, RASA1 / Fold change vs veh, RASA1 / RFU, RB1 / Fold change vs veh, RB1 / RFU, PPFIA1 / Fold change vs veh, PPFIA1 / RFU, MAT2A / Fold change vs veh, MAT2A / RFU, CCT5 / Fold change vs veh, CCT5 / RFU, WDR92 / Fold change vs veh, WDR92 / RFU, CUX1 / Fold change vs veh, CUX1 / RFU, TTC7A / Fold change vs veh, TTC7A / RFU, TMEM135 / Fold change vs veh, TMEM135 / RFU, DEPTOR / Fold change vs veh, DEPTOR / RFU, CPM / Fold change vs veh, CPM / RFU, DNAJB6 / Fold change vs veh, DNAJB6 / RFU, CACNA2D3 / Fold change vs veh, CACNA2D3 / RFU, DTX4 / Fold change vs veh, DTX4 / RFU, TFCP2 / Fold change vs veh, TFCP2 / RFU, GMCL1 /// GMCL1P1 / Fold change vs veh, GMCL1 /// GMCL1P1 / RFU, AEBP2 / Fold change vs veh, AEBP2 / RFU, SNHG1 /// SNORD22 /// SNORD25 /// SNORD26 /// SNORD27 /// SNORD28 /// SNORD29 /// SNORD31 / Fold change vs veh, SNHG1 /// SNORD22 /// SNORD25 /// SNORD26 /// SNORD27 /// SNORD28 /// SNORD29 /// SNORD31 / Fold change (Aza/veh), C12orf56 (ProbeSet 11735607_a_at) / Fold change (ACY-1035/veh), C12orf56 (ProbeSet 11735607_a_at) / Fold change (Aza/veh), FGFR1OP (ProbeSet 11751329_s_at) / Fold change (ACY-1035/veh), FGFR1OP (ProbeSet 11751329_s_at) / Fold change (Aza/veh), VPS36 (ProbeSet 11739960_a_at) / Fold change (ACY-1035/veh), VPS36 (ProbeSet 11739960_a_at) / RFU SYPL1 (11715823_x_at) / Fold change /veh SYPL1 (11715823_x_at) / RFU IGFBP7 (11715501_s_at) / Fold change /veh IGFBP7 (11715501_s_at) / RFU REEP3 (11722064_at) / Fold change /veh REEP3 (11722064_at) / RFU IGLL1 (11728026_x_at) / Fold change /veh IGLL1 (11728026_x_at): dose or concentration left out as unconfirmed
Details: MV-4-11 cells, 48 hours

Nc1ncn([C@@H]2O[C@H](CO)[C@@H](O)[C@H]2O)c(=O)n1 [azacitidine]
RFU ACY1 (11761880_at): 18.62 RFU
